Consider two molecules from patent US20240336567A1, “PESTICIDAL AND HERBICIDAL COMPOUNDS AND METHODS OF USE THEREOF” (AG Plenus Ltd, priority 2021, published 2024).

One assay deals with SETVI. As to the kind of experiment: In-planta LTP pre-emergence, visual phenotype. The format is in vivo, Setaria viridis. Particulars: Setaria viridis, 432 h, monocot. Here is the method:
(§1) A basic panel of 8 weed species (Table 3) were sowed in 4×4×7 cm plastic pots containing inert sand (Sweet sand), intensively washed using osmosis water. Each specie was sowed in a separate pot. In each pot 10-15 seeds were sowed according to the specie viability. Sowing was performed one day before application. The plants were grown for 21 days in a controlled greenhouse (26±2° C. day 20±2° C. night). Hood irrigation (tap water+Shefer 5:3:8 8 mM) was given at a 50% water content by weight. Compounds were soluble in water (DDW), and commercial herbicide control was soluble in formulation B (Table 4). Application was conducted with an industrial sprayer (TeeJet 6502E nozzle) at a rate of 2 kg/ha and spray volume of […]. Pre-emergence advanced dose response experiment application was conducted at six rates between 1-0.0312 kg/ha and spray volume of […]. Percentage of emergence was evaluated at 15 DAA. Visual phenotyping was recorded using a scale of 0-6 (0: no visible effect, 6: maximum effect) at 18 DAA. All experiments included an untreated control, a solvent control and a positive control (commercial herbicide A.I.). Statistical analysis for visual phenotyping determined by a median value of ≥3.5 and Fisher test (pval≤0.05). Statistical analysis for plant emergence determined by % emergence ≥50 and T test (pval≤0.05), as well as Wilcox test (pval≤0.05).

The next assay relates to POAAN. As to the kind of experiment: In-planta LTP pre-emergence, visual phenotype. The format is in vivo, Poa annua. Particulars: monocot. As to the method:
as §1

The next assay concerns ECHCO. The assay can be described thus: In-planta LTP pre-emergence, visual phenotype. The format is in vivo, Echinochloa colona. Particulars: monocot. Here is the method:
as §1

A further assay has as its system ALOMY. The assay can be described thus: In-planta LTP pre-emergence, visual phenotype. Type of assay: in vivo, Alopecurus myosuroides. Particulars: monocot. As to the method: as §1
In another assay the test system is DIGSA. As to the kind of experiment: In-planta LTP pre-emergence, visual phenotype. Type of assay: in vivo, Digitaria sanguinalis. Particulars: monocot. Here is the method: as §1
Assay [1] has as its system Arabidopsis thaliana. As to the kind of experiment: HTPS (high throughput on soil) - Dicot - Post-emergence. The format is in vivo. Particulars: N/A: not active; for Emax: read-out: HTPS - Dicot - Post Max effect; for HTPS - Dicot - Post ED50: from normalized green area. As to the method:
(§2) Arabidopsis thaliana seeds were sown in 96 well plates filled with irrigated Sweet sand (10%>clay) that is washed from salts and minerals using tap water. 5-10 seeds were sown in the center of each well. 7-8 days post sowing, at 2 true leaves stage, thinning out was performed to ensure that compound application is done on a single plant per well. The plates were placed in a controlled greenhouse in a random order inside a bath which allows flooding irrigation with tap water supplemented with a fertilizer. Applied compounds were dissolved into a final solution of 50% acetone, 49.9% DDW, 0.1% tween-20. A 96 well plate was used as a stock plate for preparing application solutions for 8 repeats. Each row contained different concentrations per chemical. Maximal concentration for application was 1.5 Kg/Ha and dilution factor is 2.5. Chemical application was performed one day after thinning out in a chemical hood. 5 μL applied on first two true leaves in each well using 12 channel pipettes. Data collection: RGB (red, green, blue) data for green area per well was documented using camera. Data is collected at a few time points during the experiment: one day after thinning and before chemical application, two-, six- or nine-days post application. During the last two documentations, visual phenotyping was performed. Data analysis: Given RGB results and visual phenotype scores, a student t-test conducted to compare between treatment and control performance for continuous data (RGB) and Fisher exact test to analyze the non-continuous data (phenotypic scores). Dose-Response curves are generated for each treatment to infer ED50 and max. inhibition parameters, using treatment's log concentration range as the […] variable and normalized green area. Plate imaging performed at 11 and 18 DAA. RGB data for green area per well was documented and used to extract % inhibition. Dose-Response curves were built for each treatment to infer ED50, ED75 and ED90 parameters, using treatment's log concentration range as the independent variable and normalized green area as the dependent variable. Treatments were compared to controls performance given RGB results and using student's t-test (p-val≤0.05).

A further assay has as its system SOLNI. As to the kind of experiment: In-planta LTP pre-emergence, visual phenotype. The format is in vivo, Solanum nigrum. Particulars: dicot. Here is the method: as §1
The next assay concerns LOLPE. The assay can be described thus: In-planta LTP pre-emergence, visual phenotype. Type of assay: in vivo, Lolium perenne. Particulars: monocot. As to the method: as §1
The subject of the next assay is Eragrostis teff. The assay can be described thus: HTPS - Monocot - Pre-emergence. The format is in vivo. Particulars: N/A: not active; for Emax: read-out: HTPS - Monocot - Pre Max effect. Here is the method: as §2, with “area. These experiments are conducted similarly except that either Arabidopsis thaliana or Eragrostis teff seeds were sowed (5-10 or 5-7, respectively), plant thinning out was not performed, compound dissolved into a final solution of 50% acetone, 49.9% DDW, compound application was done at 30 μL volume per well directly on sowed soil before plant emergence and data was collected 10 or 7 days after chemical application on dicot or monocot plants, respectively.” for “area.”

The subject of a further assay is EPPHL. As to the kind of experiment: In-planta LTP pre-emergence, visual phenotype. The format is in vivo, Euphorbia heterophylla. Particulars: dicot. Here is the method:
as §1

The subject of assay [2] is Arabidopsis thaliana. The assay can be described thus: HTPS - Dicot - Pre-emergence. Type of assay: in vivo. Particulars: N/A: not active. As to the method: as §2, with “area. These experiments are conducted similarly except that either Arabidopsis thaliana or Eragrostis teff seeds were sowed (5-10 or 5-7, respectively), plant thinning out was not performed, compound dissolved into a final solution of 50% acetone, 49.9% DDW, compound application was done at 30 μL volume per well directly on sowed soil before plant emergence and data was collected 10 or 7 days after chemical application on dicot or monocot plants, respectively.” for “area.”

Assay [3] can be described thus: in vitro thermal shift (binding of compound to the target). Particulars: thermal shift caused by binding of the compound to the (unnamed) target.
The subject of the next assay is CHEAL. As to the kind of experiment: In-planta LTP pre-emergence, visual phenotype. Particulars: dicot. Type of assay: in vivo, Chenopodium album. Here is the method: as §1
A further assay relates to AMAPA. The assay can be described thus: In-planta LTP pre-emergence, visual phenotype. The format is in vivo, Amaranthus palmeri. Particulars: dicot; for pest or weed control at 2000 g/ha: Amaranthus palmeri, 432 h, read-out: IG Inhibited growth (% effect). Here is the method: as §1
Assay [4] deals with MATCA. As to the kind of experiment: In-planta LTP pre-emergence, visual phenotype. The format is in vivo, Matricaria chamomilla. Particulars: dicot. Here is the method: as §1
The subject of a further assay is ABUTH. The assay can be described thus: In-planta LTP pre-emergence, visual phenotype. Particulars: dicot. Type of assay: in vivo, Abutilon theophrasti. As to the method:
as §1

In assay [5] the test system is MATCA. The assay can be described thus: In-planta LTP post-emergence, visual phenotype. Particulars: dicot. Type of assay: in vivo, Matricaria chamomilla. As to the method:
A basic panel of eight weed species (Table 3) sowed in 4×4×7 cm plastic pots containing a garden mix (klasmann). Each specie was sowed in a separate pot. In each pot, 10-15 seeds were sowed according to the specie viability. Timing of application determined at a 1-2 true leaf stage. The plants grew for 30 days in a controlled greenhouse (26±2° C. day, 20±2° C. night). Hood irrigation (tap water+Shefer 5:3:8 8 mM) was given at a 50% water content by weight. Two days before application, the tested plants thinned down to three plants per pot. Compounds were soluble in water (DDW), and commercial herbicide control was soluble in formulation B (Table 4). […] Plants were evaluated at 3 time points (4, 8, 12 days after application (DAA)). At each time point, visual phenotyping was recorded using a scale of 0-6 (0: no visible effect, 6: maximum effect). […]
Post-emergence advanced dose response experiment included 4 species: SETVI, ECHCO, AMAPA, ABUTH (Tables 3, 5). […] Plants were evaluated at 4 time points (6, 12, 18 and 26 DAA). At each time point, visual phenotyping was recorded using a scale of 0-6 (0: no visible effect, 6: maximum effect). […]
Post-emergence advanced wide panel experiment included 24 weed species (Table 5). […] Visual phenotyping was recorded at 4, 11, 17 and 20 DAA using a scale of 0-6 (0: no visible effect, 6: maximum effect). […]

Each structure is given as a SMILES string. Read-outs that look alike come from different tables or passages of the source.

As to `CC(N)COc1cccc(C(=O)O)n1` (centres unmarked) [Compound 116], the results for the pest or weed control at 2000 g/ha with SETVI (read-out: DE Disturbed emergence (% effect)) and with AMAPA were 100% and 80%, respectively. In addition, the “DE Disturbed emergence (% effect)” value in the assay with POAAN, with ECHCO, with DIGSA and in the assay with LOLPE was “DE (100) %” in each case. In addition, the “IG Inhibited growth (% effect)” value with ALOMY is on record as “IG (100), %”; in the assay on SOLNI, “IG (80), %”; in the assay on EPPHL it was “IG (60), %”; in the assay on CHEAL, “IG (80), %”; with MATCA [4], “IG (80), %”; with ABUTH, “IG (80), %”. In the assay on ALOMY, the “W Wilting (% effect)” value was “W^5 (100) %”. Further, the Emax in the assay with Arabidopsis thaliana [1], in the assay with Eragrostis teff and with Arabidopsis thaliana [2] (read-out: HTPS - Dicot - Pre Max effect) was 100% in each case. The “HTPS - Dicot - Post ED50” value with Arabidopsis thaliana [1] stood at 3 g/ha. The “DAB Disturbed apical bud (% effect)” value in the assay with SOLNI is reported as “DAB^2 (80) %”; in the assay with EPPHL, “DAB (80) %”; with CHEAL, “DAB (80) %”; in the assay with AMAPA, “DAB (100) %”; in the assay with MATCA [4], “DAB (60) %”; in the assay with ABUTH it was “DAB (80) %”. For the same molecule, the “HTPS - Monocot - Pre ED50” value in the assay on Eragrostis teff is given as 10 g/ha. Moreover, the “BL Bleaching (% effect)” value in the assay on EPPHL was “BL (80), %”; in the assay on MATCA [4], “BL^4 (40), %”; in the assay on ABUTH it was “Bl (80), %”. Besides, the “HTPS - Dicot - Pre ED50” value in the assay on Arabidopsis thaliana [2] came to 10 g/ha. The “in vitro Thermal Shift” value in assay [3] is 16 °C. Moreover, the “C Chlorosis (% effect)” value with AMAPA is given as “C^3 (60), %”.
Consider `NCCOc1ccc(F)c(C(=O)O)c1` [Compound 129], for which the pest or weed control at 2000 g/ha in the assay on SETVI (read-out: IG Inhibited growth (% effect)) was found to be 40%; in the assay on POAAN (Poa annua, 432 h, read-out: IG Inhibited growth (% effect)) it was 80%; with AMAPA, 40%. Further, in the assay with POAAN, the “DE Disturbed emergence (% effect)” value was “DE (80) %”. The figures for the Emax with Arabidopsis thaliana [1] and with Eragrostis teff were 81% and 86%, respectively. Besides, in the assay with Arabidopsis thaliana [1], the “HTPS - Dicot - Post ED50” value is reported as 45 g/ha. Besides, the “IG Inhibited growth (% effect)” value in the assay with LOLPE was “IG (40) %”. In the assay on Eragrostis teff, the “HTPS - Monocot - Pre ED50” value came out at 550 g/ha. Moreover, the “in vitro Thermal Shift” value in assay [3] amounted to 9 °C. Also, the “LOD Lodging (% effect)” value in the assay on MATCA [5] is listed as “LOD^3 (40) %”.
